Measurements published in ChEMBL document CHEMBL1201862, “PubChem BioAssay data set” (2004).
Calls of active or inactive are those of the source.

How the values were obtained:
[1] = target: Lysine-specific demethylase 4C (Homo sapiens, UniProt Q9H3R0); test: inhibition of JMJD2C H3K9me3 demethylation – biochemical, DELFIA europium, cherry-picked samples, dose response (AID 488835); type: functional
[2] = target: Signal transducer and activator of transcription 3 (Homo sapiens, UniProt P40763); test: STAT3 blockade with qPCR and toxicity readouts – cell-based, STAT1 panel, cytotoxicity, late-stage follow-up, panel member STAT3 Inhibition (AID 2078)
[3] = target: Signal transducer and activator of transcription 1-alpha/beta (Homo sapiens, UniProt P42224); test: STAT3 blockade with qPCR and toxicity readouts – cell-based, STAT1 panel, cytotoxicity, late-stage follow-up, panel member STAT1 Inhibition (AID 2078)
[4] = target: T1, G-protein coupled receptor 35 (Homo sapiens, UniProt Q9HC97); test: SAR analysis of Agonists of the GPR35 Receptor using an Image-Based Assay - Set 4. [Related pubchem assays (depositor defined):AID2013, AID2026]; type: functional
[5] = target: T2, Cannabinoid receptor 1 (Homo sapiens, UniProt P21554); test: SAR analysis of agonists of the Cannabinoid Receptor 1 using an Image-Based Assay - Set 4. [Related pubchem assays (depositor defined):AID2013, AID2026]; type: functional
[6] = target: T1, G-protein coupled receptor 35; test: SAR analysis of Antagonists of the GPR35 Receptor using an Image-Based Assay - Set 6. [Related pubchem assays (depositor defined):AID2013, AID2026]; type: functional
[7] = target: T2, Cannabinoid receptor 1; test: SAR analysis of antagonists of the Cannabinoid Receptor 1 using an Image-Based Assay - Set 4. [Related pubchem assays (depositor defined):AID2013, AID2026]; type: functional
[8] = target: T3, G-protein coupled receptor 55 (Homo sapiens, UniProt Q9Y2T6); test: SAR Analysis of Selective Antagonists of GPR55 using an Image-Based Assay - Set 4. [Related pubchem assays (depositor defined):AID2013, AID2026]; type: functional
[9] = target: T4, Cannabinoid receptor 2 (Homo sapiens, UniProt P34972); test: SAR analysis of antagonists of the Cannabinoid Receptor 2 using an Image-Based Assay - Set 3. [Related pubchem assays (depositor defined):AID2013, AID2026]; type: functional
[10] = target: T4, Cannabinoid receptor 2; test: SAR analysis of agonists of the Cannabinoid Receptor 2 using an Image-Based Assay - Set 3. [Related pubchem assays (depositor defined):AID2013, AID2026]; type: functional
[11] = Luminescence Cell-Based Dose Response HTS to Identify Inhibitors of Luciferase Translation or Activity in H4-C Neuroglioblastoma Cells. [Related pubchem assays: 1813 (Primary HTS), 1827 (Project Summary)]; type: functional
[12] = Luminescence Cell-Based Dose Response HTS to Identify Activators of Luciferase Translation or Activity in H4-C Neuroglioblastoma Cells. [Related pubchem assays: 1829 (Project Summary), 1814 (Primary HTS)]; type: functional
[13] = Luminescence Cell-Based Dose Retest to Confirm Activators of 5'UTR Stem-Loop Driven Alpha-Synuclein mRNA Translation in H4 Neuroglioblastoma Cells. [Related pubchem assays (depositor defined):AID1813, AID1829]; type: functional
[14] = Luminescence Cell-Based Dose Response HTS to Identify Activators of 5'UTR Stem-Loop Driven Prion Protein mRNA Translation in H4-C Neuroglioblastoma Cells. [Related pubchem assays: 1829 (Project Summary), 1814 (Primary HTS)]; type: functional
[15] = Luminescence Cell-Based Dose HTS Response to Identify Inhibitors of 5'UTR Stem-Loop Driven Prion Protein mRNA Translation in H4-C Neuroglioblastoma Cells. [Related pubchem assays (depositor defined):AID1814, AID1827]; type: functional
[16] = Luminescence Cell-Based Dose Confirmation HTS to Identify Inhibitors of 5'UTR Stem-Loop Driven Alpha-Synuclein mRNA Translation in H4 Neuroglioblastoma Cells. [Related pubchem assays: 1827 (Project Summary), 1813 (Primary HTS)]; type: functional
[17] = target: Aminopeptidase N (Plasmodium falciparum FcB1/Columbia, UniProt O96935); test: malaria alanyl aminopeptidase activity blockers – biochemical, fluorogenic H-Leu-NHMec substrate, 1536-well (AID 1445); design: species or system Plasmodium falciparum 3D7, 3D7
[18] = target: Large T antigen (Simian virus 40, UniProt P03070); type: functional, Betapolyomavirus macacae;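 also: Confirmatory-stage PubChem screen for compounds that inhibit SV40 T antigen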
[19] = target: T5, Calpain-2 catalytic subunit (Sus scrofa, UniProt P43367); test: m-calpain protease blockers, concentration series – biochemical, fluorogenic peptide substrate, dose response (AID 1420); type: functional
T5 sequence (P43367 whole entry): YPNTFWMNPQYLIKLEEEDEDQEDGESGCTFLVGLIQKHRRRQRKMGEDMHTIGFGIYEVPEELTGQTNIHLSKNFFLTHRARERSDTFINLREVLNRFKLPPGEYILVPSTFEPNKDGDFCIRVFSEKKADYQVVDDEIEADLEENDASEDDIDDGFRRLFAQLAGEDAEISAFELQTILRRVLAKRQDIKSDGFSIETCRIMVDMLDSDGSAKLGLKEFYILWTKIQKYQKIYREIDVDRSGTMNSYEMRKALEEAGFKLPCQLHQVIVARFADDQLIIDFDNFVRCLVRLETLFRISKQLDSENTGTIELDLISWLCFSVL

[20] = target: Bifunctional protein GlmU (Mycobacterium tuberculosis, UniProt P9WMN3); test: Inhibitors of Mycobacterial Glucosamine-1-phosphate acetyl transferase (GlmU). Secondary screen.; design: species or system Mycobacterium tuberculosis H37Rv
[21] = target: Induced myeloid leukemia cell differentiation protein Mcl-1 (Homo sapiens, UniProt Q07820); type: functional
[22] = target: Intestinal-type alkaline phosphatase (Mus musculus, UniProt P24822); test: PubChem AID 488785; type: functional
[23] = target: T6, Alkaline phosphatase, tissue-nonspecific isozyme (Homo sapiens, UniProt P05186); test: TNAP enzyme inhibition by screening hits, dose response, selectivity assay for mouse IAP inhibitor project, biochemical, human TNAP, uHTS hits (AID 488906); type: functional
T6 sequence (P05186 whole entry): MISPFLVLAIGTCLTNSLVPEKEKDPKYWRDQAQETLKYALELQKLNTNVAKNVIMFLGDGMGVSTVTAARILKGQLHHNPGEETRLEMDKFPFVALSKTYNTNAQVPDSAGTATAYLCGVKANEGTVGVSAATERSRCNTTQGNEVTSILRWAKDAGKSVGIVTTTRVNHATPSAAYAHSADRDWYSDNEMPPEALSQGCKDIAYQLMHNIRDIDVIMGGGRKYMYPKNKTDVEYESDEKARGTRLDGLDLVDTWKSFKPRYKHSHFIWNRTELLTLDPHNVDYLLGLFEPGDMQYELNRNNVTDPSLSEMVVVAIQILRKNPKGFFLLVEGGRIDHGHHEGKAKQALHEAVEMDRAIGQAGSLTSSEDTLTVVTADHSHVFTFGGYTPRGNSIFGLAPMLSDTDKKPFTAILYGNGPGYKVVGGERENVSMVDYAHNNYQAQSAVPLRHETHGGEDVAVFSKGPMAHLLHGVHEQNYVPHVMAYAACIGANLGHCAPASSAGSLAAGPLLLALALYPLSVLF

[24] = target: Intestinal-type alkaline phosphatase (Homo sapiens, UniProt P09923); test: inhibition of human intestinal alkaline phosphatase – biochemical, dose response (AID 488876); type: functional
[25] = target: Kappa-type opioid receptor (Homo sapiens, UniProt P41145); test: SAR analysis of small molecule agonists of the kappa opioid receptor via a luminescent beta-arrestin assay - Set 3. [Related pubchem assays (depositor defined):AID1777, AID1785, AID1786, AID1966, AID2133, AID2136, AID2284, AID2500]; type: functional
[26] = target: T7, Bcl-2-related protein A1 (Mus musculus, UniProt Q07440); type: functional;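 also: confirmatory dose–response counterscreen on Bfl-1, used to check hits from a UBC13 polyubiquitin inhibitor campaign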
T7 sequence (Q07440 whole entry): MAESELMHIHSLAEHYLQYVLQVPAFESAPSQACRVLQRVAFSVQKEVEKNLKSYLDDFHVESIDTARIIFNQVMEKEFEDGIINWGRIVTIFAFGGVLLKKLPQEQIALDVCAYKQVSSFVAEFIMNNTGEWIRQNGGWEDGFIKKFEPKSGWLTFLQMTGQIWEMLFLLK

[27] = target: T8, Ubiquitin-conjugating enzyme E2 N (Homo sapiens, UniProt P61088); type: functional
T8 sequence (P61088 whole entry): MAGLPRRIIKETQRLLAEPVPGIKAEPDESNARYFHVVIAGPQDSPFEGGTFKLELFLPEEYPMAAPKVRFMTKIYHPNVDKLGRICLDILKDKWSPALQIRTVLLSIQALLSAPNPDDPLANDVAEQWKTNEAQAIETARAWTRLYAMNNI

[28] = target: T8, Ubiquitin-conjugating enzyme E2 N; type: functional; remark: listed apart in the source
[29] = target: T9, Hexokinase HKDC1 (Homo sapiens, UniProt Q2TB90); test: activation of HKDC1 glucose phosphorylation – biochemical, W721R variant, dose response (AID 504730); type: functional
T9 sequence (Q2TB90 whole entry): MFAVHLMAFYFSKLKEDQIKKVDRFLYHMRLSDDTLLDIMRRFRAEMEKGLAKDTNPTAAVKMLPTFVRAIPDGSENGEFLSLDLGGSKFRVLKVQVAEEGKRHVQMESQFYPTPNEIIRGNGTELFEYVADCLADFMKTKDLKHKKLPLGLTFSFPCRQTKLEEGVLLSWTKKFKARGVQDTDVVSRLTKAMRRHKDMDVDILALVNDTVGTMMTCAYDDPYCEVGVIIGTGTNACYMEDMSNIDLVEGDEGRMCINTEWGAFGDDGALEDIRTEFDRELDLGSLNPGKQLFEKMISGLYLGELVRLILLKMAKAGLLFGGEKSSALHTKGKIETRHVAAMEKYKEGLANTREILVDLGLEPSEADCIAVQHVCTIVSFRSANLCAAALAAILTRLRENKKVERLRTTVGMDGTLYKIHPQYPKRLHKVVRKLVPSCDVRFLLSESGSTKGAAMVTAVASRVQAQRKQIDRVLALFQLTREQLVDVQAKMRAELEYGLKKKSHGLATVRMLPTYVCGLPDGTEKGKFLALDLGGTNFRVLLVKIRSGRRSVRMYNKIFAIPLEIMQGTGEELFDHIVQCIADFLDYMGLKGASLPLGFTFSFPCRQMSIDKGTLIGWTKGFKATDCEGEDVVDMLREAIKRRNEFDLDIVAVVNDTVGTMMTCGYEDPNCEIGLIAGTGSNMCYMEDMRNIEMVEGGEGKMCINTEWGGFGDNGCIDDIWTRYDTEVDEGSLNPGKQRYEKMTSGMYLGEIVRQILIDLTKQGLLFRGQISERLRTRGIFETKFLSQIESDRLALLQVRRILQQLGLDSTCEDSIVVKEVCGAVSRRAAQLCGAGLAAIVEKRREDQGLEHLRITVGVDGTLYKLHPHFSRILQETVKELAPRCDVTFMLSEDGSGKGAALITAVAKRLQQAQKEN

[30] = target: Hexokinase-1 (Homo sapiens, UniProt P19367); test: HK1 enzyme activation by HKDC1 hits – biochemical, selectivity assay for HKDC1 activator project, dose response (AID 504762); type: functional
[31] = target: T3, G-protein coupled receptor 55; test: blockers of GPR55 signalling, imaged – imaging, image-based, counter-screen for GPR35 antagonist project, SAR follow-up (AID 2397); type: functional

T4 sequence (P34972 whole entry): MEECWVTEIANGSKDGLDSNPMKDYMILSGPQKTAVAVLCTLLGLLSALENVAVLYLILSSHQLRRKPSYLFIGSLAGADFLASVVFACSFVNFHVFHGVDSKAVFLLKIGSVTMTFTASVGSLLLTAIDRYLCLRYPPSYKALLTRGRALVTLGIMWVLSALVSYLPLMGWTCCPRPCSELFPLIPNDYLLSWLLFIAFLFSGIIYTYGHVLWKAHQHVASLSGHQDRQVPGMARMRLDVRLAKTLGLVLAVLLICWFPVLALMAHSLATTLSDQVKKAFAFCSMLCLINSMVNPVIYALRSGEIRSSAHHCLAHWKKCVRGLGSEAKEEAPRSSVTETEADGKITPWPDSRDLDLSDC
T1 sequence (Q9HC97 whole entry): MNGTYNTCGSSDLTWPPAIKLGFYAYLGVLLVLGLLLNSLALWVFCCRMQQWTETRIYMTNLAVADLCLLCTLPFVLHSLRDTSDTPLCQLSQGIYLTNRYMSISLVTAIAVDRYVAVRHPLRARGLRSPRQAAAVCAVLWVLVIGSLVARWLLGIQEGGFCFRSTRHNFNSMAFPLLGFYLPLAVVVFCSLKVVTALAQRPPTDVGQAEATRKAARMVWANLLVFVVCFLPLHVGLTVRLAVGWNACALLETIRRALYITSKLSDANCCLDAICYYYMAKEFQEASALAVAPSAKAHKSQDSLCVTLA
T3 sequence (Q9Y2T6 whole entry): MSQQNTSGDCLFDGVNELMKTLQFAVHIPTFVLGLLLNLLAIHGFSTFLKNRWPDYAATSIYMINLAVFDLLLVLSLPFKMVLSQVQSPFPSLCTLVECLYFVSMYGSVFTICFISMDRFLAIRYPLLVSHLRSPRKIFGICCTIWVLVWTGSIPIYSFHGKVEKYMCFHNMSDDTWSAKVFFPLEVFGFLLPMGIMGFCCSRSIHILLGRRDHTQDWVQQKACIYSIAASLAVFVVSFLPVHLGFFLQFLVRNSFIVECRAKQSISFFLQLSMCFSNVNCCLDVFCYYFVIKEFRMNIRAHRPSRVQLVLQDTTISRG
T2 sequence (P21554 whole entry): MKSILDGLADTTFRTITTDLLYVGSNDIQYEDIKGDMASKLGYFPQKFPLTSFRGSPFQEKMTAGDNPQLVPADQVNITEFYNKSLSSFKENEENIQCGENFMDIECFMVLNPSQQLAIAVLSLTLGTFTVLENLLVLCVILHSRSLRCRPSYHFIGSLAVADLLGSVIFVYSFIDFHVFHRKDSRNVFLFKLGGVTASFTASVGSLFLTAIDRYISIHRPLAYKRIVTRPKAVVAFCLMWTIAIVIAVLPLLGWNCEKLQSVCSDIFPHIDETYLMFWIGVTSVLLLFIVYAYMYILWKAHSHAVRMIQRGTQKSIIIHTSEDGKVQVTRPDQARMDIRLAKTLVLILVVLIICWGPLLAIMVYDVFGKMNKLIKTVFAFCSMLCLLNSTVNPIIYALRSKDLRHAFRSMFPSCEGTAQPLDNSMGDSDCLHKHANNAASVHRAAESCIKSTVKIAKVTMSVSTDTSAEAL
Sequence of Bifunctional protein GlmU (P9WMN3 whole entry): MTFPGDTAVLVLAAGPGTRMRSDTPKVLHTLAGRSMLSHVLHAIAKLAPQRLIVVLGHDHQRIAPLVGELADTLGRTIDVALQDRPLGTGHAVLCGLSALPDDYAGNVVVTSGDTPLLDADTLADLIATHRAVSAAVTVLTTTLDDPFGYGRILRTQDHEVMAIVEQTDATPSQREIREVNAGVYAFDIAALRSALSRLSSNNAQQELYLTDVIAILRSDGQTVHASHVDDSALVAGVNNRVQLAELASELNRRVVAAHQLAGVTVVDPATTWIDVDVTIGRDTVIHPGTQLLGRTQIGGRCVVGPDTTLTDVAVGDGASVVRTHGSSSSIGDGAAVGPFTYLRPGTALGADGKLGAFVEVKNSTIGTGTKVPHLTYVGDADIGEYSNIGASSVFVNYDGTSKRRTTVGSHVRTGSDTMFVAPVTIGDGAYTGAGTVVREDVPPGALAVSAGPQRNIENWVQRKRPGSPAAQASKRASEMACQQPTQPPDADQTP
Sequence of Aminopeptidase N (O96935 whole entry): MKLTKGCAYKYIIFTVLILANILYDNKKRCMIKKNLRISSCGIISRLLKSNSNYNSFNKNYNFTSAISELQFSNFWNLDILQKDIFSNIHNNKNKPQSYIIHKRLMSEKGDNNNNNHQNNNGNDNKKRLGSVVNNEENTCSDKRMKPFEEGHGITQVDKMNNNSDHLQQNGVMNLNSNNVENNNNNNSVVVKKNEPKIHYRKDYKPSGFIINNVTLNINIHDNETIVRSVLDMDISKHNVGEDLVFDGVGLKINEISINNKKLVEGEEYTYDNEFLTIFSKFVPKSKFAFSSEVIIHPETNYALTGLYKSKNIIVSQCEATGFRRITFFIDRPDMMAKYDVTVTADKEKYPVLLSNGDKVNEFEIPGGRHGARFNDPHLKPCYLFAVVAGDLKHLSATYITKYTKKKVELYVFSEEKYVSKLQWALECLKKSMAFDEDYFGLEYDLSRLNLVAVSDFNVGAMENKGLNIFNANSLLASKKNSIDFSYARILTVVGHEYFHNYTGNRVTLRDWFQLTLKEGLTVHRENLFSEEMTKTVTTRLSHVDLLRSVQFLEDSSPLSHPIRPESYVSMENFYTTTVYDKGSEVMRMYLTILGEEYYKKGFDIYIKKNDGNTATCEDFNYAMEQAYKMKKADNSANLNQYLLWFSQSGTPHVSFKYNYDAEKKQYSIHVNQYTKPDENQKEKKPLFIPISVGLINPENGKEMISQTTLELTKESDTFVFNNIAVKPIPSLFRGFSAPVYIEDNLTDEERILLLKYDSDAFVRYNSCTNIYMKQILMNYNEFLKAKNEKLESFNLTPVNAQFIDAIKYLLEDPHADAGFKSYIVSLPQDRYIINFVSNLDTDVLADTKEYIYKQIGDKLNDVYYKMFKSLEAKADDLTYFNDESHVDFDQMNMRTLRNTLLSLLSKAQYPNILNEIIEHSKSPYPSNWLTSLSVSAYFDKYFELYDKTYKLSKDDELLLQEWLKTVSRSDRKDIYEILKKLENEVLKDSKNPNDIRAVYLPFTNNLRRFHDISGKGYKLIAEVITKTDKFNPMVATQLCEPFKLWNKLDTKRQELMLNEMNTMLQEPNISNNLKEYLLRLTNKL
Sequence of Signal transducer and activator of transcription 3 (P40763 whole entry): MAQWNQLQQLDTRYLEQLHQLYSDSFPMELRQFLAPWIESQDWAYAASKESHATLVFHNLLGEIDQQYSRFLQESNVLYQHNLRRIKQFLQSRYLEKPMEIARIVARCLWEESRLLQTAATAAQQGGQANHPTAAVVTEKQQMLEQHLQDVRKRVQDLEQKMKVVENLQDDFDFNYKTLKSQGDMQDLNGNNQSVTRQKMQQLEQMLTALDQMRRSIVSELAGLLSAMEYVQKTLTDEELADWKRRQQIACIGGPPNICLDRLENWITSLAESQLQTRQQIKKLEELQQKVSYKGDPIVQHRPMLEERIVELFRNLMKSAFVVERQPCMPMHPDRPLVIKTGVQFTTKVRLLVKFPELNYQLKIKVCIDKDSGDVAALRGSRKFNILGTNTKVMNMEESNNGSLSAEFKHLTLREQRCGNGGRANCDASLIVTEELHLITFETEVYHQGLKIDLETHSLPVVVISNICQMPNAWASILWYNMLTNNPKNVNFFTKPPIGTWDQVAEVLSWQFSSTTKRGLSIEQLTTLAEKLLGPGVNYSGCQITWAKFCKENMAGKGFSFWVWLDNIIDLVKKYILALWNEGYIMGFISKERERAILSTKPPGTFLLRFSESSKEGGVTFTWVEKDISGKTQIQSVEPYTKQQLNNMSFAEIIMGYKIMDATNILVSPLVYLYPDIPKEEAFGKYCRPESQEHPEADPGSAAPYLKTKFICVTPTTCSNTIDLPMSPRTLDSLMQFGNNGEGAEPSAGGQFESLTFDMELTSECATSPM
Sequence of Kappa-type opioid receptor (P41145 whole entry): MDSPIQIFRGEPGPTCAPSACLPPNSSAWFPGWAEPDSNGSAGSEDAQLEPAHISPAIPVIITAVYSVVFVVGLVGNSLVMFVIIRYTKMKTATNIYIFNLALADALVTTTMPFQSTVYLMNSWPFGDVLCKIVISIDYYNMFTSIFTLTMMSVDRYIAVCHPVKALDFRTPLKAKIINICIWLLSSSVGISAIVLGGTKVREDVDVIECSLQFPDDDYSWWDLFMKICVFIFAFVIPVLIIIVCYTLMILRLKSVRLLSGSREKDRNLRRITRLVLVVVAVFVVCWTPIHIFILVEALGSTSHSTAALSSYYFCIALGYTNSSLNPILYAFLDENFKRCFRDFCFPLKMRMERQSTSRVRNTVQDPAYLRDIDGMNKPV
Sequence of Signal transducer and activator of transcription 1-alpha/beta (P42224 whole entry): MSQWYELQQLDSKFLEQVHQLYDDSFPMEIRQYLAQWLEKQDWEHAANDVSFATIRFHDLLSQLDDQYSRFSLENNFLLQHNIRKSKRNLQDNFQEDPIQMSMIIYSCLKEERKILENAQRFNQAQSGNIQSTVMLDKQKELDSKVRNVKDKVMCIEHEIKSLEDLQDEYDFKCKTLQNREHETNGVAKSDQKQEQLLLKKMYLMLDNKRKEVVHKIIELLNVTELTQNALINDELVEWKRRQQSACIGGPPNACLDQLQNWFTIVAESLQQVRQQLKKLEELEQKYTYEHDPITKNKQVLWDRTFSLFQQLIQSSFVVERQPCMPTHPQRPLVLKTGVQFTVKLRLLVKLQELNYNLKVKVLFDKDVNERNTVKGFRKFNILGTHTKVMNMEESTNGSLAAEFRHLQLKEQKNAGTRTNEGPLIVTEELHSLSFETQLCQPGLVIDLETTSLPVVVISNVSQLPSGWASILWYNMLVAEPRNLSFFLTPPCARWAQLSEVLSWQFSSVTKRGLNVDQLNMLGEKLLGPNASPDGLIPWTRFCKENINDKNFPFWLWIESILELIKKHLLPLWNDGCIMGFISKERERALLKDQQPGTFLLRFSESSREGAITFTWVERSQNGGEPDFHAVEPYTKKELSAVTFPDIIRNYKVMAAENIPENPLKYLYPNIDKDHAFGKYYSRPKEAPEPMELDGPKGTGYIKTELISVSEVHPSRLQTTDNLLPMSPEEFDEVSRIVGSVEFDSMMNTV

**Q.** Which AC50 [1] does the source give for `CN1C(=O)N(C)C(=O)C2(Cc3ccccc3N3CCCC32)C1=O` (stereo unspecified) here?
**A.** 14.2 µM (active)

**Q.** What does the source list for `O=C(c1ccc(Cl)cc1)C1CCN(c2ncnc3sccc23)CC1`?
**A.** IC50 [2]: 0.837 µM (active); IC50 [3]: > 55.7 µM (inactive)

**Q.** For `O=C(Cc1ccc2c(c1)OCO2)N1CCC(n2nc(-c3ccccc3)oc2=O)CC1`, which EC50 [4] is on record?
**A.** > 32 µM (inactive)

**Q.** And the EC50 [5]?
**A.** > 32 µM (inactive)

**Q.** What about the IC50 [6] of the same molecule?
**A.** > 32 µM (inactive)

**Q.** What about the IC50 [7] of the same molecule?
**A.** 15.8 µM (inactive)

**Q.** And the IC50 [8]?
**A.** > 32 µM (inactive)

**Q.** And the IC50 [9]?
**A.** > 32 µM (inactive)

**Q.** What about the EC50 [10] of the same molecule?
**A.** > 32 µM (inactive)

**Q.** What does the source list for `COC(=O)c1c(NC(=O)c2ccc([N+](=O)[O-])o2)sc2c1CCN(C(C)C)C2`?
**A.** EC50 [11]: 1.33 µM (active); EC50 [12]: 2.12 µM (inconclusive); EC50 [13]: 1.88 µM (inconclusive); EC50 [14]: 2.23 µM (inconclusive); EC50 [15]: 2.94 µM (active); EC50 [16]: 3.35 µM (active)

**Q.** With `O=C(NN1C(=O)/C(=C/C=C/c2ccco2)SC1=S)c1ccccc1O` as the molecule, how does the IC50 [17] read?
**A.** 73.5 µM (active)

**Q.** And the IC50 [18]?
**A.** 18.8 µM (active)

**Q.** What about the IC50 [19] of the same molecule?
**A.** 47.6 µM (not active)

**Q.** And the IC50 [20]?
**A.** 80.6 µM (active)

**Q.** And the IC50 [21]?
**A.** 2.42 µM (active)

**Q.** What about the IC50 [22] of the same molecule?
**A.** 15.8 µM (active)

**Q.** And the IC50 [23]?
**A.** 25.9 µM (active)

**Q.** And the IC50 [24]?
**A.** 30.7 µM (active)

**Q.** For `Clc1ccccc1Cn1c(SCc2ccccc2)nnc1-c1ccccn1`, which EC50 [25] is on record?
**A.** > 20 µM (inactive)

**Q.** Which IC50 [26] does the source give for `CN(C)CCCN(C(=O)c1ccc(S(=O)(=O)N2CCCCCC2)cc1)c1nc2ccc(Br)cc2s1` here?
**A.** > 20 µM (inactive)

**Q.** And the IC50 [27]?
**A.** 13.4 µM (active)

**Q.** What about the IC50 [28] of the same molecule?
**A.** 10.3 µM (active)

**Q.** For `CCc1c(C)c(C#N)c2nc3ccccc3n2c1NC`, which EC50 [29] is on record?
**A.** 44.8 µM (inactive)

**Q.** What about the EC50 [30] of the same molecule?
**A.** 21.1 µM (inactive)

**Q.** Which IC50 [31] does the source give for `Clc1ccc(Cn2ncc3c(N4CCN(c5cccc(Cl)c5)CC4)ncnc32)cc1` here?
**A.** > 32 µM (inactive)
